Nine compounds from US20220370416A1, “COMPOUNDS AND METHODS FOR TARGETED DEGRADATION OF KRAS” (Arvinas Operations, Inc., priority 2020, published 2022) can be followed below.

Test [1] has as its target T1, HiBit-KRAS^G12C (Homo sapiens, UniProt P01116, G12C). Description: HiBit degradation assay in MiaPaCa-2 HiBit-KRas^G12C cells. It is filed as cell-based. The following applies: 24 hours. An outline of the steps: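 MiaPaCa-2 cells with CRISPR N-terminal HiBit knock-in on one endogenous KRAS^G12C allele, treated 24 hours at 37° C with compound titrated 10 μM to 20 nM (0.1% or 0.5% DMSO). Lytic HiBit luminescence normalized to DMSO, 4-parameter fit giving DC50 and Dmax; points cytotoxic to […] cells by alamar blue excluded.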
A general note: HiBiT is a short tag that completes a luciferase, so light tracks the accessible tagged protein.

The target of test [2] is T1, HiBit-KRAS^G12C. Description: HiBit degradation assay in SW1573 HiBit-KRas^G12C cells. The test is classed as cell-based. The arrangement: expressed in transfected cells; host or cells: SW1573 (clone E6), modified pcDNA3.1 vector, TK promoter. The following applies: 24 hours. An outline of the steps:
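SW1573 cells stably expressing N-terminally HiBit-tagged KRAS G12C, under the TK promoter, were treated 24 h at 37 °C with 10 μM to 20 nM compound in 0.1% or 0.5% DMSO. Residual HiBit luminescence normalised to DMSO and fitted with a 4-parameter model for DC50 and Dmax. Points with ≥50% viability loss (alamar blue) excluded.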

Where [3] appears, read: read-out: KRas^G12C-HiBiT (MiaPaCa; 0.1% DMSO) IC50, MiaPaCa-2 HiBit-KRas^G12C cells, 0.1% DMSO.
Where [4] appears, read: SW1573 HiBit-KRas^G12C, 0.1% DMSO, read-out: KRas^G12C-HIBit (SW1573; 0.1% DMSO) DC50*.
Where [5] appears, read: read-out: KRas^G12C-HiBiT (MiaPaCa; 0.5% DMSO) IC50, MiaPaCa-2 HiBit-KRas^G12C cells, 0.5% DMSO.
Where [6] appears, read: read-out: KRas^G12C-HiBiT (SW1573; 0.5% DMSO) IC50***, SW1573 HiBit-KRas^G12C, 0.5% DMSO.
The mark [7] stands for this setting: MIA PaCa-2, MiaPaCa-2 HiBit-KRas^G12C cells, 0.5% DMSO, maximum degradation, read-out: KRas^G12C-HiBiT (MiaPaCa; 0.5% DMSO) DMax.
The mark [8] stands for this setting: SW1573, SW1573 HiBit-KRas^G12C, 0.5% DMSO, read-out: KRas^G12C-HiBiT (SW1573; 0.5% DMSO) Dmax**.
The mark [9] stands for this setting: MIA PaCa-2, MiaPaCa-2 HiBit-KRas^G12C cells, 0.1% DMSO, maximum degradation, read-out: KRas^G12C-HiBiT (MiaPaCa; 0.1% DMSO) DMax.
Setting [10] is: SW1573, SW1573 HiBit-KRas^G12C, 0.1% DMSO, read-out: KRas^G12C-HiBit (SW1573; 0.1% DMSO) Dmax**.

T1 sequence (P01116 1-186 isoform P01116-2 G12C limits assumed): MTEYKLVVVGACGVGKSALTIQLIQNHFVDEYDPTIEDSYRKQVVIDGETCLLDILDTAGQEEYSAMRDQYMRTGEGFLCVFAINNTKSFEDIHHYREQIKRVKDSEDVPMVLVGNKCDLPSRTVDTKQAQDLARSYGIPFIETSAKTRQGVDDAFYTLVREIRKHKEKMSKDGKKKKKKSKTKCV

With `C=CC(=O)N1CCN(c2nc(O[C@H](C)CN3CCC(OCCOC4CN(CC(=O)N[C@H](C(=O)N5C[C@H](O)C[C@H]5C(=O)N[C@@H](C)c5ccc(-c6scnc6C)cc5)C(C)(C)C)C4)CC3)nc3c(F)c(-c4cc(O)cc5ccccc45)c(Cl)cc23)CC1` [Compound 53, (2S,4R)-1-[(2S)-2-(2-{3-[2-({1-[(2R)-2-{[6-chloro-8-fluoro-7-(3-hydroxynaphthalen-1-yl)-4-[4-(prop-2-enoyl)piperazin-1-yl]quinazolin-2-yl]oxy}propyl]piperidin-4-yl}oxy)ethoxy]azetidin-1-yl}acetamido)-3,3-dimethylbutanoyl]-4-hydroxy-N-[(1S)-1-[4-(4-methyl-1,3-thiazol-5-yl)phenyl]ethyl]pyrrolidine-2-carboxamide], the DC50 in test [1] (setting [3]) is more than 1 µM; in test [2] (setting [4]), 0.1 to 1 µM. The Dmax in test [2] (SW1573, read-out: KRas^G12C-HiBit (SW1573; 0.1% DMSO) Dmax**, SW1573 HiBit-KRas^G12C, 0.1% DMSO) is less than 35%.
For the compound `C=CC(=O)N1CCN(c2nc(OCCN3CCC(F)(COc4cc([C@@H](C(=O)N5C[C@H](O)C[C@H]5C(=O)N[C@@H](C)c5ccc(-c6scnc6C)cc5)C(C)C)on4)CC3)nc3c(F)c(-c4cc(O)cc5ccccc45)c(Cl)cc23)C[C@@H]1CC#N` [Compound 134, (2S,4R)-1-[(2S)-2-[3-({1-[2-({6-chloro-4-[(3S)-3-(cyanomethyl)-4-(prop-2-enoyl)piperazin-1-yl]-8-fluoro-7-(3-hydroxynaphthalen-1-yl)quinazolin-2-yl}oxy)ethyl]-4-fluoropiperidin-4-yl}methoxy)-1,2-oxazol-5-yl]-3-methylbutanoyl]-4-hydroxy-N-[(1S)-1-[4-(4-methyl-1,3-thiazol-5-yl)phenyl]ethyl]pyrrolidine-2-carboxamide], the DC50 in test [1] (setting [5]) and in test [2] (setting [6]) was more than 1 µM in each case.
For the compound `C=CC(=O)N1CCN(c2nc(OCCN3CCC(COCC(=O)N[C@H](C(=O)N4C[C@H](O)C[C@H]4C(=O)N[C@@H](C)c4ccc(-c5scnc5C)cc4)C(C)(C)C)CC3)nc3c(F)c(-c4c(C)ccc5[nH]ncc45)c(Cl)cc23)C[C@@H]1CC#N` [Compound 128, (2S,4R)-1-[(2S)-2-[2-({1-[2-({6-chloro-4-[(3S)-3-(cyanomethyl)-4-(prop-2-enoyl)piperazin-1-yl]-8-fluoro-7-(5-methyl-1H-indazol-4-yl)quinazolin-2-yl}oxy)ethyl]piperidin-4-yl}methoxy)acetamido]-3,3-dimethylbutanoyl]-4-hydroxy-N-[(1S)-1-[4-(4-methyl-1,3-thiazol-5-yl)phenyl]ethyl]pyrrolidine-2-carboxamide], the results for the Dmax in test [1] (setting [7]) and in test [2] (setting [8]) were 35 to 70% and more than 70%, respectively. For the same compound, the DC50 in test [1] (setting [5]) and in test [2] (setting [6]) was 0.1 to 1 µM in each case.
With `C=CC(=O)N1CCN(c2nc(OCCN3CCN(CCOCC(=O)N[C@H](C(=O)N4C[C@H](O)C[C@H]4C(=O)N[C@@H](C)c4ccc(-c5scnc5C)cc4)C(C)(C)C)CC3)nc3c(F)c(-c4cc(O)cc5ccccc45)c(Cl)cc23)CC1` [Compound 51, (2S,4R)-1-[(2S)-2-(2-{2-[4-(2-{[6-chloro-8-fluoro-7-(3-hydroxynaphthalen-1-yl)-4-[4-(prop-2-enoyl)piperazin-1-yl]quinazolin-2-yl]oxy}ethyl)piperazin-1-yl]ethoxy}acetamido)-3,3-dimethylbutanoyl]-4-hydroxy-N-[(1S)-1-[4-(4-methyl-1,3-thiazol-5-yl)phenyl]ethyl]pyrrolidine-2-carboxamide], the Dmax in test [1] (setting [9]) and in test [2] (setting [10]) was less than 35% each time. Also, the DC50 was 0.1 to 1 µM in test [1] (setting [3]) and more than 1 µM in test [2] (setting [4]).
`C=CC(=O)N1CCN(c2nc(OCCN3CCC(COCC(=O)N[C@H](C(=O)N4C[C@@H](O)C[C@H]4C(=O)N[C@@H](C)c4ccc(-c5scnc5C)cc4)C(C)(C)C)CC3)nc3c(F)c(-c4cc(O)cc5ccccc45)c(Cl)cc23)C[C@@H]1CC#N` [Compound 6, (2S,4S)-1-[(2S)-2-[2-({1-[2-({6-chloro-4-[(3S)-3-(cyanomethyl)-4-(prop-2-enoyl)piperazin-1-yl]-8-fluoro-7-(3-hydroxynaphthalen-1-yl)quinazolin-2-yl}oxy)ethyl]piperidin-4-yl}methoxy)acetamido]-3,3-dimethylbutanoyl]-4-hydroxy-N-[(1S)-1-[4-(4-methyl-1,3-thiazol-5-yl)phenyl]ethyl]pyrrolidine-2-carboxamide]: in test [1] (MIA PaCa-2, read-out: KRas^G12C-HiBiT (MiaPaCa; 0.1% DMSO) DMax, MiaPaCa-2 HiBit-KRas^G12C cells, 0.1% DMSO, maximum degradation), the Dmax was in the range of 35 to 70%. Further, in test [2] (setting [4]), the DC50 is more than 1 µM.
`C=CC(=O)N1CCN(c2nc(OCCCN3CCC(OCC(=O)N[C@H](C(=O)N4C[C@H](O)C[C@H]4C(=O)N[C@@H](C)c4ccc(-c5scnc5C)cc4)C(C)(C)C)CC3)nc3c(F)c(-c4cc(O)cc5ccccc45)c(Cl)cc23)CC1` [Compound 25, (2S,4R)-1-[(2S)-2-(2-{[1-(3-{[6-chloro-8-fluoro-7-(3-hydroxynaphthalen-1-yl)-4-[4-(prop-2-enoyl)piperazin-1-yl]quinazolin-2-yl]oxy}propyl)piperidin-4-yl]oxy}acetamido)-3,3-dimethylbutanoyl]-4-hydroxy-N-[(1S)-1-[4-(4-methyl-1,3-thiazol-5-yl)phenyl]ethyl]pyrrolidine-2-carboxamide]: the Dmax in test [1] (setting [9]) was less than 35%; in test [2] (setting [10]), 35 to 70%. In addition, the DC50 in test [2] (setting [4]) is 0.1 to 1 µM.
On to `C=CC(=O)N1CCN(c2nc(OCCN3CCC4(CC3)CN(c3cc([C@@H](C(=O)N5C[C@H](O)C[C@H]5C(=O)N[C@@H](C)c5ccc(-c6scnc6C)cc5)C(C)C)on3)C4)nc3c(F)c(-c4cc(O)cc5ccccc45)c(Cl)cc23)C[C@@H]1CC#N` (atropisomer, axis not shown) [Compound 108, (2S,4R)-1-[(2S)-2-(3-{7-[2-({6-chloro-4-[(3S)-3-(cyanomethyl)-4-(prop-2-enoyl)piperazin-1-yl]-8-fluoro-7-(3-hydroxynaphthalen-1-yl)quinazolin-2-yl}oxy)ethyl]-2,7-diazaspiro[3.5]nonan-2-yl}-1,2-oxazol-5-yl)-3-methylbutanoyl]-4-hydroxy-N-[(1S)-1-[4-(4-methyl-1,3-thiazol-5-yl)phenyl]ethyl]pyrrolidine-2-carboxamide], for which the Dmax in test [1] (setting [7]) was less than 35%. The DC50 was 0.1 to 1 µM in test [1] (setting [5]) and more than 1 µM in test [2] (setting [6]).
As to `C=C(F)C(=O)N1CCN(c2nc(OCCN3CCC(COCC(=O)N[C@H](C(=O)N4C[C@H](O)C[C@H]4C(=O)N[C@@H](C)c4ccc(-c5scnc5C)cc4)C(C)(C)C)CC3)nc3c(F)c(-c4cc(O)cc5ccccc45)c(Cl)cc23)C[C@@H]1CC#N` (atropisomer, axis not shown) [Compound 151, (2S,4R)-1-[(2S)-2-[2-({1-[2-({6-chloro-4-[(3S)-3-(cyanomethyl)-4-(2-fluoroprop-2-enoyl)piperazin-1-yl]-8-fluoro-7-(3-hydroxynaphthalen-1-yl)quinazolin-2-yl}oxy)ethyl]piperidin-4-yl}methoxy)acetamido]-3,3-dimethylbutanoyl]-4-hydroxy-N-[(1S)-1-[4-(4-methyl-1,3-thiazol-5-yl)phenyl]ethyl]pyrrolidine-2-carboxamide], the Dmax in test [1] (setting [7]) and in test [2] (setting [8]) was more than 70% each time. The DC50 in test [2] (setting [6]) is less than 0.1 µM.
In the case of `C=CC(=O)N1CCN(c2nc(OCCN3CCC(COCC(=O)N[C@H](C(=O)N4C[C@H](O)C[C@H]4C(=O)N[C@@H](C)c4ccc(-c5scnc5C)cc4)C(C)(C)C)CC3)nc3c(F)c(-c4cc(O)cc5ccccc45)c(Cl)cc23)C[C@@H]1CC#N` [Compound 17, (2S,4R)-1-[(2S)-2-[2-({1-[2-({6-chloro-4-[(3S)-3-(cyanomethyl)-4-(prop-2-enoyl)piperazin-1-yl]-8-fluoro-7-(3-hydroxynaphthalen-1-yl)quinazolin-2-yl}oxy)ethyl]piperidin-4-yl}methoxy)acetamido]-3,3-dimethylbutanoyl]-4-hydroxy-N-[(1S)-1-[4-(4-methyl-1,3-thiazol-5-yl)phenyl]ethyl]pyrrolidine-2-carboxamide], the Dmax in test [1] (setting [9]) is more than 70%; in test [2] (setting [10]), 35 to 70%. In addition, the “KRas^G12C-HiBiT (MiaPaCa; 0.5% DMSO) DMax” value in test [1] (MiaPaCa-2 HiBit-KRas^G12C cells, 0.5% DMSO, maximum degradation) is reported as “A (A ≥ 70)”. Also, in test [2] (setting [4]), the DC50 is 0.1 to 1 µM. Moreover, in test [2] (SW1573 HiBit-KRas^G12C, 0.5% DMSO), the “KRas^G12C-HiBiT (SW1573; 0.5% DMSO) Dmax**” value is listed as “A (A ≥ 70)”.
